Here are results for one compound from PMC8086144, “A novel peptide antagonist of the human growth hormone receptor” (The Journal of Biological Chemistry, 2021).

Assay [1] addresses T1, hGHR (Homo sapiens, UniProt P10912).
T1 construct: previously reported to express high levels of endogenous hGHR; host or cells: SK-MEL-28, MALME-3M, IM9
T1 sequence (P10912 19-638): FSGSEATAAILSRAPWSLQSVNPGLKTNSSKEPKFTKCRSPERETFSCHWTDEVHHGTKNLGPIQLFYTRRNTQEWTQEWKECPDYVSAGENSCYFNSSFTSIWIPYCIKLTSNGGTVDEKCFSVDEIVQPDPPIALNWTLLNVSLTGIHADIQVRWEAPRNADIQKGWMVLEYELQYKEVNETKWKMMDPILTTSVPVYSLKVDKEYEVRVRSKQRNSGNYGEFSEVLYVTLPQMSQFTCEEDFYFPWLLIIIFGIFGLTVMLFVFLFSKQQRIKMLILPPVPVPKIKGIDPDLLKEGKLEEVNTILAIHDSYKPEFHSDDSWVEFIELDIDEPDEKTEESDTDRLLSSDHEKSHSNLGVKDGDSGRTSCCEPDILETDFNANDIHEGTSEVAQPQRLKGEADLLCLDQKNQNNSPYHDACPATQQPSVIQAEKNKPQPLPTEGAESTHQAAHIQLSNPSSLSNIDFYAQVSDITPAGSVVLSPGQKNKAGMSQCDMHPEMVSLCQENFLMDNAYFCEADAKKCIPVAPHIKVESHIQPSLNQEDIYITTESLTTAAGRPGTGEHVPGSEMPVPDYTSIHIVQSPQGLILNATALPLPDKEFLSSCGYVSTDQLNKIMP
Put plainly: hGH-mediated pSTAT5 in MALME-3M cells, Western blot. The assay is classed as cell-based. To be noted: 20 min. The protocol:
(§1) SK-MEL-28, MALME-3M, and T84 cells were grown and maintained in Eagle's Minimal Essential Medium. IM9 and L cells were grown in RPMI-1640 media and Dulbecco's modified Eagle's medium, respectively. All growth media was supplemented with 10% fetal bovine serum and 1× antibiotic-antimycotic […] solution. Cells were grown at 37 °C under a 5% CO2 atmosphere in a humidified incubator, and growth media was replaced every 48 h during incubation. No hGH was present in or added to the growth media unless specifically indicated. […]
(§2) Following treatment, the cells were harvested at the indicated time points, and the total protein was extracted. […] Sample protein concentration was quantified using a Bradford assay with bovine serum albumin as the protein standard. Absorbance at 595 nm was measured using a Spectramax 250 multimode plate reader (Molecular Devices) and processed using SoftmaxPro v4.7.1 software.
(§3) Cytosolic fractions from treated cells were thawed on ice, and 80 μg protein was loaded onto polyacrylamide gels for separation by SDS-PAGE. […] Chemiluminescence signals were detected using a GelDoc (BioRad) fluorescence imager. […] Percent inhibition was then measured by subtracting the pSTAT5 band intensity in each lane from the pSTAT5 band intensity of hGH-treated samples. […]
Background: In western blotting, separated proteins are transferred to a membrane and probed.

The target of assay [2] is T1, hGHR. Put plainly: hGH-mediated pSTAT5 in IM9 cells, Western blot. Format: cell-based. The following applies: 200 nM S1H with 2.5 nM hGH, 20 min, Western blot densitometry, n = 3. The protocol:
as §1, §2, §3

For orientation: inhibition means the relative decrease from the control value, in per cent. As to `CC[C@H](C)[C@H](NC(=O)[C@H](Cc1ccc(O)cc1)NC(C)=O)C(=O)N1CCC[C@H]1C(=O)N[C@@H](CCCCN)C(=O)N[C@@H](CCC(=O)O)C(=O)N[C@@H](CCC(N)=O)C(=O)N[C@@H](CCCCN)C(=O)N[C@@H](Cc1ccc(O)cc1)C(=O)N[C@@H](CO)C(=O)N[C@@H](Cc1ccccc1)C(=O)N[C@@H](CC(C)C)C(=O)N[C@@H](CCC(N)=O)C(=O)N[C@@H](CC(N)=O)C(=O)N1CCC[C@H]1C(=O)N[C@@H](CCC(N)=O)C(=O)N[C@H](C(N)=O)[C@@H](C)O` [S1H], the inhibition at 0.05 µM in assay [1] (50 nM inhibitor with 2.5 nM hGH, Western blot, compared with hGH alone, read-out: inhibition of hGH-induced pSTAT5) is 40%. Moreover, the “suppression of hGH-mediated pSTAT5” value in assay [1] (200 nM S1H with 2.5 nM hGH, Western blot densitometry, n = 3) is 56%; in assay [2] it was 67%.
